From the NIST ThermoML archive (doi:10.1016/j.fluid.2008.04.014) come the findings set out here.

A short description of data set [1]: refractive index (Na D-line) (dimensionless). The settings on record: 293.15 K; 101.33 kPa; Liquid; Standard Abbe refractometry.
The conditions of data set [2]: Liquid; for mass density: 293.15 K, 101.33 kPa, Vibrating tube method; for Normal boiling temperature: Manometric method.

As a reminder, the refractive index is a measure of how strongly the sample bends light. For orientation: mass density means the mass of a sample divided by its volume.

Numbers after ± are expanded uncertainties.

`O=CO` [formic acid]: in data set [1], the refractive index was 1.3709 ± 0.0011. Further, in data set [2], the mass density was found to be 1221.1 ± 0.4 kg/m3 and the Normal boiling temperature was found to be 101.00 ± 1 °C.
`COC(=O)/C=C\C(=O)OC` [dimethyl cis-butenedioate]: the refractive index in data set [1] was found to be 1.4415 ± 0.0011. Also, in data set [2], the mass density came out at 1160.8 ± 0.4 kg/m3 and the Normal boiling temperature is 202.00 ± 1 °C.
Turning to `CC(=O)O` [acetic acid], the refractive index in data set [1] was 1.3719 ± 0.0011. For the same compound, in data set [2], the mass density came out at 1044.7 ± 0.3 kg/m3 and the Normal boiling temperature is 117.90 ± 0.4 °C.
For the compound `CCC(=O)O` [propanoic acid], the refractive index in data set [1] was 1.391 ± 0.0011. Further, in data set [2], the mass density is 988.3 ± 0.3 kg/m3 and the Normal boiling temperature is 141.20 ± 0.4 °C.
`O` [water]: the refractive index in data set [1] stood at 1.3334 ± 0.001.
